Like-named read-outs stand apart in the source and are kept apart here.
How the values were obtained:
MCF-7 cells [1] = experiment: Cell viability of MCF-7 cells after treatment at 10 and 100 µM (MTT cell proliferation assay, 24 h, normoxia); assay type: cell-based; details: Homo sapiens, mean ± SD; for viability at 10 µM: MCF7, 10 µM; for viability at 100 µM: MCF7, 100 µM
Procedure: (§1) The cytotoxic activity of all the synthesized chalcones was tested against breast cancer cell lines using an MTT cell proliferation assay. All compounds were tested in vitro at 10 and 100 µM using the cell viability assay in MCF-7 for 24 h in normoxia (Table 1). Firstly, the cytotoxic effect of the chalcone compounds modified in ring B and with an unsubstituted ring A was tested (compounds 3–8). […] Secondly, compounds with modifications in the A and B rings (9–13) were tested.
The cell culture methodology was used with modifications. Three human breast cancer cell lines were used for this study: MCF-7 (ATCC® HTB-22™), ZR-75-1 (ATCC® CRL-1500™), MDA-MB-231 (ATCC® HTB-26™), and the non-tumorigenic MCF-10F (ATCC® CRL-10318™) cell lines. Cells were cultured in specific media according to ATCC recommendations. The incubation condition was established at 37 °C, a complete humid atmosphere, 5% CO2 and 95% […]. […]

MCF-10F cells = experiment: Cytotoxic assay, IC50 in non-tumorigenic MCF-10F cells; assay type: cell-based, human; details: MCF-10F non-tumorigenic cells, mean ± SD, read-out: IC50 Cell Lines MCF-10F
Procedure: (§2) The cell culture methodology was used with modifications. Three human breast cancer cell lines were used for this study: MCF-7 (ATCC® HTB-22™), ZR-75-1 (ATCC® CRL-1500™), MDA-MB-231 (ATCC® HTB-26™), and the non-tumorigenic MCF-10F (ATCC® CRL-10318™) cell lines. Cells were cultured in specific media according to ATCC recommendations. The incubation condition was established at 37 °C, a complete humid atmosphere, 5% CO2 and 95% O2.
(§3) The cytotoxic effect of the chalcone compounds was assessed in MCF-10F cells in a dose- and time-dependent manner. Cells (1 × 10^4 and 4 × 10^4) cultured under normoxic conditions were seeded in 24-well plates in quadruplicate and incubated for 4 days until 70% confluence. After this incubation period, cells were exposed to concentrations of the synthesized compounds dissolved in ethanol (50%) at concentrations ranging from 0 to 96.8 µg/mL (dissolved in 0.5% DMSO). Doxorubicin was used as the control drug, and for all data a p < 0.05 value was considered statistically significant. Cell viability was assessed using a neutral red uptake assay after 24 h of treatment.

MDA-MB-231 cells = experiment: Cytotoxic assay, IC50 in MDA-MB-231 cells; assay type: cell-based; details: Homo sapiens, mean ± SD, read-out: IC50 Cell Lines MDA-MB-231
Procedure: as §1, §2, §3

ZR-75-1 cells = experiment: Cytotoxic assay, IC50 in ZR-75-1 cells; assay type: cell-based; details: Homo sapiens, mean ± SD, read-out: IC50 Cell Lines ZR-75-1
MCF-7 cells [2] = experiment: Cytotoxic assay, IC50 in MCF-7 cells; assay type: cell-based; details: Homo sapiens, MCF7, mean ± SD, read-out: IC50 Cell Lines MCF-7
MCF-7 cells [3] = system: MCF-7 cells; set-up: method as in PMID 27814565; details: read-out: IC50 on the growth of the MCF-7 cells; cited from earlier work

| Structure (SMILES) | viability at 10 µM (MCF-7 cells [1]) [%] | viability at 100 µM (MCF-7 cells [1]) [%] | IC50 (MCF-10F cells; Homo sapiens, MCF-10F) [µM] | IC50 (MDA-MB-231 cells) [µM] | IC50 (ZR-75-1 cells) [µM] | IC50 (MCF-7 cells [2]) [µM] | IC50 (MCF-7 cells [3]) [µM] | IC50 (MCF-10F cells; Homo sapiens) [µM] | IC50 (MCF-10F cells) [µM] |
| --- | --- | --- | --- | --- | --- | --- | --- | --- | --- |
| COc1cc(/C=C/C(=O)c2ccccc2)ccc1O [Compound 6] | 47 ± 4.9 | 4.9 ± 0.6 | 72.6 ± 10.3 | 52 ± 4.53 | 43.2 ± 6.58 | 21.6 ± 2.71 | – | – | – |
| CN(C)c1ccc(/C=C/C(=O)c2ccccc2)cc1 [Compound 5] | 47.6 ± 3.2 | 52.4 ± 4.3 | > 80 | 79.8 ± 9.31 | 76.5 ± 12.6 | > 80 | – | – | – |
| COc1ccc(/C=C/C(=O)c2ccc(O)c(CC=C(C)C)c2)cc1 [Compound 10] | 73.7 ± 6.7 | 62.3 ± 7.6 | > 80 | 78 ± 4.34 | > 80 | > 80 | – | – | – |
| C=C(C)C(O)Cc1c(O)ccc(C(=O)/C=C/c2ccc(O)c(CC=C(C)C)c2)c1O (stereo not shown) [Paratocarpin E] | – | – | – | – | – | – | 19.6 | – | – |
| COc1ccc(/C=C/C(=O)c2ccccc2)cc1 [Compound 4] | 74.5 ± 10.3 | 55.1 ± 5.1 | – | > 80 | > 80 | > 80 | – | > 80 | – |
| CC(C)=CCc1cc(C(=O)/C=C/c2ccc(N(C)C)cc2)ccc1O [Compound 11] | 42 ± 4.3 | 42.4 ± 3.9 | 78.4 ± 21.3 | 72.3 ± 2.33 | 78.2 ± 6.87 | > 80 | – | – | – |
| O=C(/C=C/c1ccc2c(c1)OCO2)c1ccccc1 [Compound 7] | 43.5 ± 3.4 | 38.6 ± 4.3 | > 80 | > 80 | > 80 | > 80 | – | – | – |
| CC(C)=CCc1cc(C(=O)/C=C/c2ccccc2)ccc1O [Compound 9] | 93.8 ± 7.9 | 82.5 ± 6.1 | > 80 | > 80 | > 80 | > 80 | – | – | – |
| O=C(/C=C/c1ccccc1)c1ccccc1 [Compound 3] | 81.3 ± 9.4 | 65.2 ± 5.7 | > 80 | > 80 | > 80 | > 80 | – | – | – |
| COc1cccc2c1C(=O)c1c(O)c3c(c(O)c1C2=O)C[C@@](O)(C(=O)CO)C[C@@H]3O[C@H]1C[C@H](N)[C@H](O)[C@H](C)O1 [Doxorubicin, reference compound] | 49.3 ± 2.2 | 57.6 ± 2.9 | 83.9 ± 8.99 | 47.6 ± 5.74 | 79.8 ± 11 | 111 ± 8.95 | – | – | – |
| COc1cc(OC)c(OC)cc1/C=C/C(=O)c1ccc(O)c(CC=C(C)C)c1 [Compound 13] | 32.4 ± 4.5 | 3.1 ± 0.4 | 95.1 ± 1.97 | 18.1 ± 1.65 | 8.75 ± 2.01 | 3.3 ± 0.92 | – | – | 75.1 ± 12 |
| COc1cc(OC)c(OC)cc1/C=C/C(=O)c1ccccc1 [Compound 8] | 100 ± 12.6 | 94.4 ± 11.6 | > 80 | > 80 | > 80 | > 80 | – | – | – |
| CC(=O)c1ccc(O)c(CC=C(C)C)c1 [Compound 1b] | – | – | 79.5 ± 9.9 | 74 ± 8.72 | 61.6 ± 14.1 | 79.4 ± 12.2 | – | – | – |
| COc1cc(/C=C/C(=O)c2ccc(O)c(CC=C(C)C)c2)ccc1O [Compound 12, (E)-1-(4-hydroxy-3-(3-methylbut-2-en-1-yl)phenyl)-3-(4-hydroxy-3-methoxyphenyl)prop-2-en-1-one] | 10.3 ± 0.6 | 3.6 ± 0.9 | 95.8 ± 1.52 | 6.12 ± 0.84 | 9.4 ± 1.74 | 4.19 ± 1.04 | – | – | 75.8 ± 11.5 |

From PMC9318862, “Cytotoxic Effects on Breast Cancer Cell Lines of Chalcones Derived from a Natural Precursor and Their Molecular Docking Analysis” (Molecules, 2022)
